For assay [1], the system named is KMS-12-BM myeloma cell line. Description: Pim cell assay: phospho-BAD (S112) and total BAD in KMS-12-BM cells. Format: cell-based. The settings on record: 1 hour and 50 minutes incubation, read-out: KMS-12-BM IC50 IP. The method, then:
The KMS-12-BM myeloma cell line was used to determine the in vitro cellular inhibition of Pim kinases. Disruption of Pim signaling by Pim inhibitors was determined by measuring the levels of phospho-BAD (S112) and total BAD. […] The cells were then incubated overnight at 37° C., 5% CO2. […] In addition to the 10-point dosing curve of the test compound, DMSO alone was run as a control. This dilution in DMSO was then diluted again into cell growth medium. Aliquots (11.1 uL) of the compound diluted in growth medium were then transferred to the appropriate wells of the 96-well plates containing cells to yield a final DMSO concentration of 0.3%. The cell plates were then incubated with compound for 1 hour and 50 minutes at 37° C., 5% CO2. After the 1 hour and 50 min incubation, the cell plates were spun at 1000 RPM for 10 minutes and the compound-containing medium was removed. […] The cell plates containing lysis buffer were then immediately stored at −70° C. These prepared lysates were then assayed for phospho-(S112) and total-BAD according to the manufacturer's protocol (Meso Scale Diagnostics, Cat # K15103D-3). The plates were read on the MSD Sector Imager 6000, and results were calculated according to the assay protocol: ((% Phosphoprotein=((2×Phospho signal)/(Phospho signal+Total signal))×100)).

The target in a further assay is Pim-1 (Homo sapiens (Human), UniProt P11309). Description: Pim enzyme assay (HTRF, phosphorylation of biotinylated-BAD (S112) peptide), Pim-1. Format: biochemical. The settings on record: full length recombinant Pim-1, biotinylated-BAD (S112) peptide, HTRF. An excerpt: (§1) Full-length human cDNAs encoding Pim-1 (MGC ID 3913552) or Pim-2 (IMAGE ID 5092935) were purchased from Invitrogen, Carlsbad, Calif. These cDNAs were used as templates in PCR reactions to produce full-length DNA clones of the PIMs. Oligonucleotide PCR primers for Pim-1 were 5′-[…]-3′ and 5′-[…]-3′. Oligonucleotide PCR primers for Pim-2 were 5′-[…]-3′ and 5′-[…]-3′. PCR products were digested with BclI and EcoRI for Pim-1 and BamHI and EcoRI for Pim-2 and ligated into a modified baculovirus transfer vector (pFastBac 1) cleaved with BamHI and EcoRI. For bacterial expression, the same cleaved PCR products encoding Pim-1 or Pim-2 were ligated into a modified E. coli expression vector pET28(a) cleaved with BamHI and EcoRI. Amino-terminal hexahistidine tags followed by a thrombin cleavage site were previously added to the vectors using standard methods of molecular biology. Recombinant baculoviruses expressing Pim-1 or Pim-2 were made using standard methods (Fastbac manual, Invitrogen, Carlsbad, Calif.). Infection of Sf9 cells was done at an m.o.i. of greater than 5 for 24-48 h. Cells were harvested by centrifugation and frozen at −80 C. For E. coli expression, cells carrying pET28-His6-Th-Pim-1 or pET28-His6-Th-Pim-2 were picked from a single colony and grown o/n in LB media. The o/n culture was used to inoculate a 2 liter flask with 500 mL media. This was grown o/n and used to inoculate 15-20 liters of Terrific Broth in a New Brunswick Scientific fermentor. The E. coli were grown at 37° C. to and OD600>1.6. The temperature was dropped to 18° C. and o/n expression was induced with 0.5 mM IPTG. Cells were harvested by centrifugation and frozen at −80° C.
(§2) The frozen cell pellets were thawed by stirring in chilled lysis buffer (0.05 M HEPES, pH 8.0, 0.25 M NaCl, 0.01 M 2-mercaptoethanol, 10% (w/v) glycerol, 0.5% (v/v) protease inhibitor cocktail (Sigma P-8340) at a ratio of 1 L/200 g cells until homogeneous. The thawed suspension was applied to a microfluidizer at 10,000 PSI to disrupt the cells and the whole lysates were clarified by centrifugation at 50,000×g for 90 min, 4° C. Imidazole was added to the clarified lysate to a final concentration of 2.5 mM and the lysate was mixed with 10 mL of Talon resin (Clontech) and the slurry rocked gently overnight at 4° C. The slurry was centrifuged at 1,000×g for 5 min, the supernatant decanted, and the resin suspended in 40 mL of lysis wash buffer (lysis buffer at 0.75 M NaCl). This step was repeated 3× and the resin was transferred to a 2.5 cm glass column. Ten column volumes of wash buffer (0.05 M HEPES, pH 8.0, 0.1 M NaCl, 0.01 M 2-mercaptoethanol, 10% (w/v) glycerol) were applied to the resin followed by 10 column volumes of elution buffer (0.05 M HEPES, pH 8.0, 0.25 M NaCl, 0.01 M 2-mercaptoethanol, 10% (w/v) glycerol, 0.1 M imidazole). Fractions were analyzed by SDS-PAGE and those containing the protein of interest were pooled and concentrated. The concentrated protein was applied to an Amersham Superdex 75 (XK 26/60) column equilibrated in 0.025 M Tris-HCl, pH 7.5, 0.1 M NaCl, 0.01 M 2-mercaptoethanol, 10% (w/v) glycerol. […] Fractions containing the monomeric protein of interest were pooled, concentrated to ˜2 mg/mL, and stored at −80° C.
(§3) The phosphorylation of biotinylated-BAD (S112) peptide by full length recombinant Pim-1, Pim-2, or Pim-3 protein was detected with streptavidin:Allophycocyanin (APC) conjugate and a europium (Eu) labeled antibody directed against phosphorylated-BAD (S112). Excitation of Eu by a high energy laser light (337 nm) leads to a transfer of energy to the APC molecule, and results in an emission at 665 nm. The fluorescence is directly proportional to the amount of phosphorylated BAD peptide present in the reaction.
A general note: In TR-FRET formats the signal depends on donor and acceptor labels being close together.

The target in a further assay is Pim-2 (Homo sapiens (Human), UniProt Q9P1W9). Description: Pim enzyme assay (HTRF, phosphorylation of biotinylated-BAD (S112) peptide), Pim-2. Format: biochemical. The settings on record: full length recombinant Pim-2, biotinylated-BAD (S112) peptide, HTRF.
Excerpt: as §1, §2, §3

Setting [2] is: 96-well, read-out: Pim-1 IC50 IP.
The mark [3] stands for this setting: 96-well, read-out: Pim-2 IC50 IP.

Read-outs that look alike come from different tables or passages of the source. A value given as a limit tells only on which side of the number the result lay.

Sequence of Pim-1 (P11309 whole entry): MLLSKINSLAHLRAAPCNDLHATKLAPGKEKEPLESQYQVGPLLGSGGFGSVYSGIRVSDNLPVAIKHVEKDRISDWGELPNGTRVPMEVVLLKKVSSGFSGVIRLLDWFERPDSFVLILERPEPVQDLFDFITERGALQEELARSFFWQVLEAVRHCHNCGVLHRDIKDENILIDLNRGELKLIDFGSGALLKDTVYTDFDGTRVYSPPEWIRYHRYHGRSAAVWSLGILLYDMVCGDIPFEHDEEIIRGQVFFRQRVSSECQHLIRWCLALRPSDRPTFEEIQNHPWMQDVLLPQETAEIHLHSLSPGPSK
Sequence of Pim-2 (Q9P1W9 whole entry): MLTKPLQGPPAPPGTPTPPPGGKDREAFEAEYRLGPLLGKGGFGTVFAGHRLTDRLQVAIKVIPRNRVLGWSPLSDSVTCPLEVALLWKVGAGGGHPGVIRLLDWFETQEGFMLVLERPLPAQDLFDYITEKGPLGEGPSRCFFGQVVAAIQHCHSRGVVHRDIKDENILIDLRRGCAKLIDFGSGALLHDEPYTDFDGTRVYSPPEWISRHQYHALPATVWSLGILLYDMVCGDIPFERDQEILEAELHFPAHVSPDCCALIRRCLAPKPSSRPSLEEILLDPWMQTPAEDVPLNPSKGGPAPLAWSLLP

On to `N[C@@H]1CN(c2ccncc2Nc2ncc3ccc(-c4c(F)cccc4F)nn23)CC[C@H]1F` (single isomer, unassigned) [Example 45, N-(4-(trans-3-amino-4-fluoropiperidin-1-yl)pyridin-3-yl)-2-(2,6-difluorophenyl)imidazo[1,5-b]pyridazin-7-amine], for which, in assay [1], the IC50 is 1070 nM.
For `C[C@H]1CC[C@@H](N)CN1c1ccncc1Nc1ncc2ccc(-c3ncccc3F)nn12` (single isomer, unassigned) [Example 94, N-(4-((cis)-5-amino-2-methylpiperidin-1-yl)pyridin-3-yl)-2-(3-fluoropyridin-2-yl)imidazo[1,5-b]pyridazin-7-amine tris(2,2,2-trifluoroacetate)], in assay [1] (tris(2,2,2-trifluoroacetate)), the IC50 was 14100 nM.
`C[C@@H]1C[C@H](N)CN(c2ccncc2Nc2ncc3ccc(-c4c(F)cccc4F)nn23)C1` (racemic) [Example 37, rac-N-(4-((cis)-3-amino-5-methylpiperidin-1-yl)pyridin-3-yl)-2-(2,6-difluorophenyl)imidazo[1,5-b]pyridazin-7-amine tris(2,2,2-trifluoroacetate)]: in assay [1] (Homo sapiens, KMS-12-BM), the IC50 was found to be 95 nM.
Turning to `C[C@@H]1C[C@H](N)CN(c2ccncc2Nc2ncc3ccc(-c4c(F)cccc4F)nn23)C1` (single isomer, unassigned) [Example 39, N-(4-((cis)-3-amino-5-methylpiperidin-1-yl)pyridin-3-yl)-2-(2,6-difluorophenyl)imidazo[1,5-b]pyridazin-7-amine], the IC50 in assay [1] stood at 1750 nM.
Regarding `C[C@H]1CC[C@H](N)CN1c1ccncc1Nc1ncc2ccc(-c3ncccc3F)nn12` (single isomer, unassigned) [Example 97, N-(4-((trans)-5-amino-2-methylpiperidin-1-yl)pyridin-3-yl)-2-(3-fluoropyridin-2-yl)imidazo[1,5-b]pyridazin-7-amine tris(2,2,2-trifluoroacetate)], the IC50 in assay [1] (Homo sapiens, KMS-12-BM) was determined as 362 nM.
In the case of `N[C@@H]1CN(c2ccncc2Nc2ncc3ccc(-c4c(F)cccc4F)nn23)CC[C@H]1F` (racemic) [Example 43, rac-N-(4-(trans-3-amino-4-fluoropiperidin-1-yl)pyridin-3-yl)-2-(2,6-difluorophenyl)imidazo[1,5-b]pyridazin-7-amine], the IC50 in assay [1] (Homo sapiens, KMS-12-BM) was 465 nM.
On to `C[C@H]1CC[C@H](N)CN1c1ccncc1Nc1ncc2ccc(-c3c(F)cccc3F)nn12` (single isomer, unassigned) [Example 87, N-(4-(5-amino-2-methylpiperidin-1-yl)pyridin-3-yl)-2-(2,6-difluorophenyl)imidazo[1,5-b]pyridazin-7-amine tris(2,2,2-trifluoroacetate)], for which, in assay [1] (tris(2,2,2-trifluoroacetate)), the IC50 was determined as 48.8 nM.
In the case of `C[C@@H]1C[C@H](N)CN(c2ccncc2Nc2ncc3ccc(-c4c(F)cccc4F)nn23)C1` (single isomer, unassigned) [Example 38, N-(4-((cis)-3-amino-5-methylpiperidin-1-yl)pyridin-3-yl)-2-(2,6-difluorophenyl)imidazo[1,5-b]pyridazin-7-amine], the IC50 in assay [1] was determined as 27.6 nM.
In the case of `C[C@H]1CC[C@H](N)CN1c1ccncc1Nc1ncc2ccc(-c3c(F)cccc3F)nn12` (single isomer, unassigned) [Example 88, N-(4-(5-amino-2-methylpiperidin-1-yl)pyridin-3-yl)-2-(2,6-difluorophenyl)imidazo[1,5-b]pyridazin-7-amine tris(2,2,2-trifluoroacetate)], the IC50 in assay [1] (tris(2,2,2-trifluoroacetate)) is 9820 nM.
As to `C[C@H]1CN(c2ccncc2Nc2ncc3ccc(-c4c(F)cccc4F)nn23)[C@@H](C)CN1` [Example 49, 2-(2,6-difluorophenyl)-N-(4-((2S,5S)-2,5-dimethylpiperazin-1-yl)pyridin-3-yl)imidazo[1,5-b]pyridazin-7-amine], the IC50 in assay [1] (Homo sapiens, KMS-12-BM) amounted to 12100 nM.
On to `N[C@H]1CCN(c2ccncc2Nc2ncc3ccc(-c4c(F)cccc4F)nn23)C1` [Example 13, N-(4-((3S)-3-amino-1-pyrrolidinyl)-3-pyridinyl)-2-(2,6-difluorophenyl)imidazo[1,5-b]pyridazin-7-amine bis(2,2,2-trifluoroacetate)], for which the results for the IC50 on Pim-1 (read-out: Pim_1_IC50) and at Pim-2 (read-out: Pim2_IC50) were 568 nM and greater than 1000 nM, respectively.
For the compound `C[C@@H]1CN(c2ccncc2Nc2ncc3ccc(-c4c(F)cccc4F)nn23)[C@@H](C)CN1` (single isomer, unassigned) [Example 52, 2-(2,6-difluorophenyl)-N-(4-((trans)-2,5-dimethyl-1-piperazinyl)-3-pyridinyl)imidazo[1,5-b]pyridazin-7-amine], the IC50 in assay [1] (Homo sapiens, KMS-12-BM) is greater than 15800 nM.
For the compound `N[C@H]1CCCN(c2cnccc2Nc2ncc3ccc(-c4c(F)cccc4F)nn23)C1` [Example 80, (S)-N-(3-(3-aminopiperidin-1-yl)pyridin-4-yl)-2-(2,6-difluorophenyl)imidazo[1,5-b]pyridazin-7-amine tetra(2,2,2-trifluoroacetate)], the IC50 at Pim-1 (setting [2]) and on Pim-2 (setting [3]) was greater than 1000 nM throughout.
On to `C[C@H]1CN(c2ccncc2Nc2ncc3ccc(-c4c(F)cccc4F)nn23)CCN1` [Example 58, (S)-2-(2,6-difluorophenyl)-N-(4-(3-methylpiperazin-1-yl)pyridin-3-yl)imidazo[1,5-b]pyridazin-7-amine bis(2,2,2-trifluoroacetate)], for which the IC50 at Pim-1 (setting [2]) turned out to be 11.8 nM; on Pim-2 (setting [3]), 65.9 nM.
As for `N[C@H]1CCCN(c2ccncc2Nc2nnc3ccc(-c4c(F)cccc4F)nn23)C1` [Example 67, (S)-N-(4-(3-aminopiperidin-1-yl)pyridin-3-yl)-6-(2,6-difluorophenyl)-[1,2,4]triazolo[4,3-b]pyridazin-3-amine 2,2,2-trifluoroacetate], the figures for the IC50 at Pim-1 (setting [2]) and on Pim-2 (setting [3]) were 4.5 nM and 35.4 nM, respectively.
On to `O[C@H]1CCCN(c2ccncc2Nc2ncc3ccc(-c4c(F)cccc4F)nn23)C1` [Example 19, (3S)-1-(3-((2-(2,6-difluorophenyl)imidazo[1,5-b]pyridazin-7-yl)amino)-4-pyridinyl)-3-piperidinol], for which the IC50 is 3 nM at Pim-1 (read-out: Pim_1_IC50) and 30 nM at Pim-2 (read-out: Pim2_IC50).
